The results in this text go back to the Kinase Knowledgebase extract (Sharma et al. 2016).

pIC50: −log10 of the molar value.

As usually defined, the pIC50 is the negative decadic logarithm of the IC50, by convention in mol/L.

In the assay the target is MAPK14 (human) (UniProt Q16539). Nature of the assay: Inhibition of MAPK14 Kinase Activity.
MAPK14 (human), sequence (Q16539 whole entry, looked up): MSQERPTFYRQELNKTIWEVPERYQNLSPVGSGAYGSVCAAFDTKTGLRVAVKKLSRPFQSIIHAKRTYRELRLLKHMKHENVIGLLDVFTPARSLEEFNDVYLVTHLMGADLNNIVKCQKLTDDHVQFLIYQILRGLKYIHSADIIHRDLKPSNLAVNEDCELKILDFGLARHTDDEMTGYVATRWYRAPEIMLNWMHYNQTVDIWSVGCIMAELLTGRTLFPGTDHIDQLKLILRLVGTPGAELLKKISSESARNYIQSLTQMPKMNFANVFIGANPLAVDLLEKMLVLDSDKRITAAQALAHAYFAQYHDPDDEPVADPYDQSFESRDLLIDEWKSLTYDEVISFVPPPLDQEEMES
Molecule `COCCn1c(SC)nc(-c2ccc(F)cc2)c1-c1ccnc(NC(=O)C[C@@H](C)c2ccccc2)c1` showed a negative-log IC50 (pIC50) of 6.94.
Under `COCCn1c(SC)nc(-c2ccc(F)cc2)c1-c1ccnc(NC(=O)CCc2ccc(OC)c(OC)c2OC)c1` stands 7.08; under `COCCn1c(SC)nc(-c2ccc(F)cc2)c1-c1ccnc(NC(=O)CCc2ccc(C(C)(C)C)cc2)c1`, 5.61.
Under `COCCn1c(SC)nc(-c2ccc(F)cc2)c1-c1ccnc(NC(=O)/C=C/c2ccccc2)c1` stands 6.71.
`COCCn1c(SC)nc(-c2ccc(F)cc2)c1-c1ccnc(NC(=O)CCc2ccc(C)cc2)c1`: the negative-log IC50 (pIC50) is 7.05.
On to `COCCn1c(SC)nc(-c2ccc(F)cc2)c1-c1ccnc(NC(=O)CCc2ccc(OC)c(OC)c2)c1`, for which the negative logarithm of the IC50 (pIC50) is 6.67.
Then `COCCn1c(SC)nc(-c2ccc(F)cc2)c1-c1ccnc(NC(=O)CCc2ccccc2OC)c1`, with 7.03; and `COCCn1c(SC)nc(-c2ccc(F)cc2)c1-c1ccnc(NC(=O)C(Oc2ccccc2)C(C)C)c1` (stereo not given), with 6.71; and `COCCn1c(SC)nc(-c2ccc(F)cc2)c1-c1ccnc(NC(=O)CCC2CCCC2)c1`, with 6.65.
Under `COCCn1c(SC)nc(-c2ccc(F)cc2)c1-c1ccnc(NC(=O)CCc2ccc(SC)cc2)c1` stands 6.59; under `COCCn1c(SC)nc(-c2ccc(F)cc2)c1-c1ccnc(NC(C)=O)c1`, 6.97.
`COCCn1c(SC)nc(-c2ccc(F)cc2)c1-c1ccnc(NC(=O)CCc2ccccc2)c1` showed a pIC50 of 7.20.
Then `COCCn1c(SC)nc(-c2ccc(F)cc2)c1-c1ccnc(NC(=O)CCCc2ccc(OC)cc2)c1`, with 7.01; and `COCCn1c(SC)nc(-c2ccc(F)cc2)c1-c1ccnc(NC(=O)CCC2CCCCC2)c1`, with 6.71; and `COCCn1c(SC)nc(-c2ccc(F)cc2)c1-c1ccnc(NC(=O)CC2CCCC2)c1`, with 6.97.
Then `COCCn1c(SC)nc(-c2ccc(F)cc2)c1-c1ccnc(NC(=O)CCc2cc(OC)c(OC)c(OC)c2)c1`, with 6.91; and `COCCn1c(SC)nc(-c2ccc(F)cc2)c1-c1ccnc(NC(=O)C[C@H](C)c2ccccc2)c1`, with 6.88.
`COCCn1c(SC)nc(-c2ccc(F)cc2)c1-c1ccnc(N)c1` showed a negative logarithm of the IC50 (pIC50) of 5.85.
Under `COCCn1c(SC)nc(-c2ccc(F)cc2)c1-c1ccnc(NCC(C)c2ccccc2)c1` (stereo not given) stands 7.46.
`COCCn1c(SC)nc(-c2ccc(F)cc2)c1-c1ccnc(NC(=O)Cc2ccccc2)c1` gave a negative-log IC50 (pIC50) of 6.41.
As to `COCCn1c(SC)nc(-c2ccc(F)cc2)c1-c1ccnc(NC(=O)CCc2ccc(S(C)(=O)=O)cc2)c1`, the pIC50 is 6.66.
Under `COCCn1c(SC)nc(-c2ccc(F)cc2)c1-c1ccnc(NC(=O)Cc2ccc(OC)cc2)c1` stands 6.67; under `COCCn1c(SC)nc(-c2ccc(F)cc2)c1-c1ccnc(NC(=O)CCc2ccc(OC)cc2)c1`, 7.32.
Then `COCCn1c(SC)nc(-c2ccc(F)cc2)c1-c1ccnc(NC(=O)C(C)(C)C)c1`, with 5.75.
On to `COCCn1c(SC)nc(-c2ccc(F)cc2)c1-c1ccnc(NC(=O)c2ccccc2)c1`, for which the pIC50 is 6.61.
Under `COCCn1c(SC)nc(-c2ccc(F)cc2)c1-c1ccnc(NC(=O)C2CC2)c1` stands 6.89; under `COCCn1c(SC)nc(-c2ccc(F)cc2)c1-c1ccnc(NC(=O)C2CCC2)c1`, 6.94.
Under `COCCn1c(SC)nc(-c2ccc(F)cc2)c1-c1ccnc(NC(=O)C(C)Oc2ccccc2)c1` (stereo not given) stands 6.99; under `COCCn1c(SC)nc(-c2ccc(F)cc2)c1-c1ccnc(NC(=O)CC(C)C)c1`, 6.99; under `COCCn1c(SC)nc(-c2ccc(F)cc2)c1-c1ccnc(NC(=O)CCc2cccc(OC)c2)c1`, 7.03.
Under `COCCn1c(SC)nc(-c2ccc(F)cc2)c1-c1ccnc(NC(=O)CC(C)c2ccccc2)c1` (stereo not given) stands 7.22; under `COCCn1c(SC)nc(-c2ccc(F)cc2)c1-c1ccnc(NC(=O)C2CCCC2)c1`, 6.34.
The molecule `COCCn1c(SC)nc(-c2ccc(F)cc2)c1-c1ccnc(NC(=O)CCc2cccc(OC)c2OC)c1` had a negative logarithm of the IC50 (pIC50) of 7.04.
Then `COCCn1c(SC)nc(-c2ccc(F)cc2)c1-c1ccnc(NC(=O)CC2CCCCC2)c1`, with 6.66.
Under `COCCn1c(SC)nc(-c2ccc(F)cc2)c1-c1ccnc(NC(=O)CCc2ccc(OC)cc2OC)c1` stands 6.75.
Under `CCC(C)C(=O)Nc1cc(-c2c(-c3ccc(F)cc3)nc(SC)n2CCOC)ccn1` (stereo not given) stands 6.51; under `COCCn1c(SC)nc(-c2ccc(F)cc2)c1-c1ccnc(NC(=O)c2ccc(OC)cc2)c1`, 6.41.
In turn, `COCCn1c(SC)nc(-c2ccc(F)cc2)c1-c1ccnc(NCCc2ccccc2)c1` showed a negative logarithm of the IC50 (pIC50) of 7.59.
The molecule `COCCn1c(SC)nc(-c2ccc(F)cc2)c1-c1ccnc(NC(=O)CCCc2ccccc2)c1` showed a pIC50 of 6.94.
Then `COCCn1c(SC)nc(-c2ccc(F)cc2)c1-c1ccnc(NC(=O)[C@H]2C[C@@H]2c2ccccc2)c1`, with 6.77; and `COCCn1c(SC)nc(-c2ccc(F)cc2)c1-c1ccnc(NC(=O)CCC(C)C)c1`, with 6.75.
Then `CCCCC(=O)Nc1cc(-c2c(-c3ccc(F)cc3)nc(SC)n2CCOC)ccn1`, with 7.08; and `COCCn1c(SC)nc(-c2ccc(F)cc2)c1-c1ccnc(NC(=O)C(C)Cc2ccccc2)c1` (stereo not given), with 7.11.
Molecule `COCCn1c(SC)nc(-c2ccc(F)cc2)c1-c1ccnc(NC(=O)C2CCCCC2)c1` showed a pIC50 of 6.81.
Then `COCCn1c(SC)nc(-c2ccc(F)cc2)c1-c1ccnc(NC(=O)CCCCc2ccccc2)c1`, with 6.94.
